Test results: US7288567B2, “Inhibitors of histone deacetylase” (Methylgene Inc., priority 2000, dated 2007)

Legend:
[1] = test system: histone deacetylase enzyme in nuclear extracts from H446 cells (pooled HDACs); experiment: Histone deacetylase inhibition, H446 nuclear extracts (pooled HDACs); type: biochemical, human; conditions: for IC50: H446 nuclear extract, [3H]-acetylated histone substrate; for pooled HDACs percent inhibition: percent inhibition at 20 μM (footnote)
Experimental: HDAC inhibitors were screened against histone deacetylase enzyme in nuclear extracts prepared from the human small cell lung cancer cell line H446 (ATTC HTB-171) and against a cloned recombinant human HDAC-1 enzyme expressed and purified from a Baculovirus insect cell expression system.
For deacetylase assays, 20,000 cpm of the [^3H]-metabolically labeled acetylated histone substrate (M. Yoshida et al., J. Biol. Chem. 265(28): 17174-17179 (1990)) was incubated with 30 μg of H446 nuclear extract or an equivalent amount of the cloned recombinant hHDAC-1 for 10 minutes at 37° C. The reaction was stopped by adding acetic acid (0.04 M, final concentration) and HCl (250 mM, final concentration). The mixture was extracted with ethyl acetate and the released [^3H]-acetic acid was quantified by scintillation counting. For inhibition studies, the enzyme was preincubated with compounds at 4° C. for 30 minutes prior to initiation of the enzymatic assay. IC50 values for HDAC enzyme inhibitors were determined by performing dose response curves with individual compounds and determining the concentration of inhibitor producing fifty percent of the maximal inhibition.

[2] = biological target: T1, recombinant human HDAC-1 enzyme (rHDAC-1) (Homo sapiens, UniProt Q13547); experiment: Histone deacetylase inhibition, recombinant human HDAC-1; type: biochemical; conditions: cloned recombinant human HDAC-1, Baculovirus insect cell expression; read-out: rHDAC-1 IC50
T1 construct: made in house; host or cells: Baculovirus insect cell expression system
T1 sequence (Q13547 whole entry): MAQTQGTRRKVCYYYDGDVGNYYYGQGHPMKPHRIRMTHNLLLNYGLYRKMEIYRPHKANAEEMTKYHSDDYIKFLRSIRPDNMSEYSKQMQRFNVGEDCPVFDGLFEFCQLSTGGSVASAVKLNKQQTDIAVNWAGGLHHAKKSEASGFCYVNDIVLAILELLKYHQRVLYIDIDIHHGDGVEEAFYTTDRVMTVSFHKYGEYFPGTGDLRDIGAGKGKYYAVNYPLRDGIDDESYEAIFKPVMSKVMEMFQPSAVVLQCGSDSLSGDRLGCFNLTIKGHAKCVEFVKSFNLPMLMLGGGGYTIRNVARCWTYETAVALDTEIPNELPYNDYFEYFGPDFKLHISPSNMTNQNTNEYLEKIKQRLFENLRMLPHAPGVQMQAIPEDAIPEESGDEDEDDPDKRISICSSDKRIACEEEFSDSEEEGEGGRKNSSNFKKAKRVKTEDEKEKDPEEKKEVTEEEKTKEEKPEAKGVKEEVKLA
Summary of the method: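 Recombinant human HDAC-1 or pooled HDACs from H446 nuclear extracts were preincubated with compounds for 30 min at 4 °C before the reaction. Released [3H]-acetic acid was extracted with ethyl acetate after acid stop and counted by scintillation. IC50 was the concentration giving half-maximal inhibition from dose-response curves.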

[3] = test system: acetylated histone H-4 in T24 human bladder cancer cells; experiment: Histone H4 acetylation in whole cells by immunoblots; type: cell-based; conditions: T-24, read-out: EC50, concentration effective for reducing the acetylated H-4 signal by 50%, T24 cells, 16 hours incubation, immunoblot densitometry
Experimental: T24 human bladder cancer cells growing in culture were incubated with HDAC inhibitors for 16 hours. Histones were extracted from the cells after the culture period as described by M. Yoshida et al. (J. Biol. Chem. 265(28): 17174-17179 (1990)). 20 μg of total histone protein was loaded onto SDS/PAGE and transferred to nitrocellulose membranes. Membranes were probed with polyclonal antibodies specific for acetylated histone H-4 (Upstate Biotech Inc.), followed by horse radish peroxidase conjugated secondary antibodies (Sigma). Enhanced Chemiluminescence (ECL) (Amersham) detection was performed using Kodak films (Eastman Kodak). Acetylated H-4 signal was quantified by densitometry.

[4] = test system: A549 human lung carcinoma cells; experiment: Antineoplastic effect on A549 tumors in nude mice; type: in vivo, BALB/c nude mice; conditions: A549 xenograft, daily injection about 10 to about 50 mg/kg, 21 days
Experimental: Eight to ten week old female BALB/c nude mice (Taconic Labs, Great Barrington, N.Y.) were injected subcutaneously in the flank area with 2×10^6 preconditioned A549 human lung carcinoma cells. Preconditioning of these cells was accomplished by a minimum of three consecutive tumor transplantations in the same strain of nude mice. Subsequently, tumor fragments of approximately 30 mgs were excised and implanted subcutaneously in mice, in the left flank area, under isoflurane anesthesia (Abbott Labs, Geneva, Switzerland). When the tumors reached a mean volume of 100 mm^3, the mice were treated intravenously, subcutaneously or intraperitoneally, by daily injection of a solution of the inhibitor in an appropriate vehicle such as PBS, DMSO/water, or Tween 80/water, at a dose from about 10 mg/kg to about 50 mg/kg, for 21 days. Tumor volume was calculated every second day post infusion according to standard methods (e.g., Meyer et al., Int. J. Cancer 43: 851-856 (1989)).

cell growth = conditions: Finnin et al. 1999; cited from earlier work
tumors = conditions: Finnin et al. 1999; cited from earlier work
HDAC = conditions: Richon et al. 1998; cited from earlier work
rat fibroblasts = conditions: Yoshida and Beppu 1988; cited from earlier work

Row | SMILES | IC50 [1] | IC50 [2] | EC50 [3] | also measured
1 | COC(C/C=C/C=C/C(=O)Nc1ccccc1N)c1ccc(N(C)C)cc1 (stereo not shown) [Compound 20, N-(2-Aminophenyl)-7-methoxy-7-[4-(N,N-dimethylamino)phenyl]-2,4-heptadienamide] | > 20 µM | 3 µM | 5 µM | –
2 | O=C(CCCCCCC(=O)c1ccc(N2CCN(c3ccccc3)CC2)cc1)NO [Compound 138g, N-Hydroxy-7-[4-(1-(4-phenylpiperazinyl))benzoyl]heptanamide] | 0.051 µM | 0.006 µM | 5 µM | –
3 | COc1ccc(-c2ccc(C(=O)CCCCCCC(=O)Nc3ccccc3N)cn2)cc1OC [Compound 151, N-(2-Aminophenyl)-7-[5-(2-(3,4-dimethoxyphenyl)pyridyl)carbonyl]heptanamide] | – | 4 µM | 3 µM | –
4 | Nc1ccccc1NC(=O)/C=C/C=C/CCC(=O)c1ccc(-c2ccccc2)cc1 [Compound 204, (E,E)-N-(2-Aminophenyl)-7-[(4-biphenyl)carbonyl]-2,4-heptadienamide] | – | 5 µM | 15 µM | –
5 | Cc1ccc2c(c1)C(=O)N(CCCCCC(=O)Nc1ccccc1N)C2=O [Compound 243d, N-(2-Aminophenyl)-6-(5-methyl-N-phthaloyl)hexanamide] | – | 3 µM | 3 µM | –
6 | Nc1ccccc1NC(=O)CCCCCN1C(=O)c2cccc3c(CN4CCCCC4)c(O)cc(c23)C1=O [Compound 251c, N-(2-Aminophenyl)-6-[2-(5-hydroxy-1,3-dioxo-6-(1-methylpiperidynyl)-1H,3H-benzo[de]isoquinolinyl)]-hexanamide] | – | 2 µM | 1 µM | –
7 | O=C(CCCCCCC(=O)Nc1ccccc1)NO [SAHA, suberoylanilide hydroxamic acid] | – | – | – | cell growth (cell growth): inhibit cell growth; terminal differentiation (cell growth): induce terminal differentiation; formation of tumors in mice (tumors): prevent the formation of tumors in mice; HDAC activity (HDAC): inhibited
8 | CC(/C=C/C(=O)NO)=C\[C@@H](C)C(=O)c1ccc(N(C)C)cc1 [TSA, trichostatin A] | – | – | – | cell cycle arrest (rat fibroblasts): causes arrest of rat fibroblasts at the G1 and G2 phases of the cell cycle; cell growth (cell growth): inhibit cell growth; terminal differentiation (cell growth): induce terminal differentiation; formation of tumors in mice (tumors): prevent the formation of tumors in mice; HDAC activity (HDAC): inhibited

Continued by falling IC50 [2], values first:

Row | IC50 [1] | IC50 [2] | EC50 [3] | SMILES | also measured
9 | > 100 µM | 7 µM | 5 µM | COC(c1ccc(N(C)C)cc1)C(C)/C=C(C)/C=C/C(=O)Nc1ccccc1N (stereo not shown) [Compound 34, N-(2-Aminophenyl)-4,6-dimethyl-7-methoxy-7-[4-(N,N-dimethylamino)phenyl]-2,4-heptadienamide] | tumor weight and volume relative to saline controls [4]: significant reduction in tumor weight and volume
10 | > 20 µM | 7 µM | 10 µM | CC(/C=C/C(=O)Nc1ccccc1N)=C\C(C)Cc1ccc(N(C)C)cc1 (stereo not shown) [Compound 39] | –
11 | > 100 µM | 2 µM | 5 µM | CC(/C=C/C(=O)Nc1ccccc1N)=C\C(C)C(=O)c1ccc(N(C)C)cc1 (stereo not shown) [Compound 35, N-(2-Aminophenyl)-4-methyl-6-[4-(N,N-dimethylamino)benzoyl]-2,4-heptadienamide] | –
12 | – | 2 µM | 5 µM | Nc1ccccc1NC(=O)CCCCCCC(=O)c1ccc(-c2ccccc2)nc1 [Compound 146, N-(2-Aminophenyl)-7-[(5-(2-phenyl)pyridyl)carbonyl]heptanamide] | –
13 | – | 1.9 µM | 10 µM | Nc1ccccc1NC(=O)CCCCCCC(=O)c1ccc(-c2ccccc2)cc1 [Compound 77, N-(2-Aminophenyl)-7-[(4-biphenyl)carbonyl]heptanamide] | pooled HDACs percent inhibition [1]: 11%
14 | > 100 µM | 1 µM | 10 µM | COc1ccc(C(C/C=C/C=C/C(=O)Nc2ccccc2N)OC)cc1 (stereo not shown) [Compound 18, N-(2-Aminophenyl)-7-methoxy-7-(4-methoxyphenyl)-2,4-heptadienamide] | –
15 | – | 0.04 µM | 3 µM | O=C(/C=C/C=C/CCC(=O)c1ccc(-c2ccccc2)cc1)NO [Compound 205, (E,E)-N-Hydroxy-7-[(4-biphenyl)carbonyl]-2,4-heptadienamide] | –
16 | – | 0.002 µM | 10 µM | COc1ccc(-c2ccc(C(=O)CCCCCCC(=O)NO)cc2)cc1 [Compound 120, N-Hydroxy-7-[4-(4-methoxyphenyl)benzoyl]heptanamide] | pooled HDACs percent inhibition [1]: 83%
